Measurements from ChEMBL document CHEMBL1201862, “PubChem BioAssay data set” (2004).
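Growth conditions: 96-well plates. Treatment: test compound, 48 hours, 5 concentrations. Analysis: linear interpolation between bracketing concentrations; unreached endpoints set to highest concentration. GI50 = concentration required for 50% inhibition of growth.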 Calls of active or inactive are those of the source. No stated cut-off is given here; in the data, active = GI50 up to about 1.1 µM and inactive = higher.

Legend:
Assay in all cases: NCI anticancer screen, dose series, 48 h
U-251 = system: U-251
SNB-75 = system: SNB-75
OVCAR-8 = system: OVCAR-8
OVCAR-5 = system: OVCAR-5
CCRF-CEM = system: CCRF-CEM
KM12 = system: KM12
UO-31 = system: UO-31
EKVX = system: EKVX
SK-MEL-5 = system: SK-MEL-5
NCI-H226 = system: NCI-H226
BT-549 = system: BT-549
TK-10 = system: TK-10
NCI-H23 = system: NCI-H23
HOP-62 = system: HOP-62
NCI-H522 = system: NCI-H522
MDA-MB-231 = system: MDA-MB-231
OVCAR-3 = system: OVCAR-3
UACC-62 = system: UACC-62
SF-295 = system: SF-295

SMILES | GI50 (U-251) | GI50 (SNB-75) | GI50 (OVCAR-8) | GI50 (OVCAR-5) | GI50 (CCRF-CEM) | GI50 (KM12) | GI50 (UO-31) | GI50 (EKVX) | GI50 (SK-MEL-5) | GI50 (NCI-H226) | GI50 (BT-549) | GI50 (TK-10) | GI50 (NCI-H23) | GI50 (HOP-62) | GI50 (NCI-H522) | GI50 (MDA-MB-231) | GI50 (OVCAR-3) | GI50 (UACC-62) | GI50 (SF-295)
CN(C)CCNC(=O)c1ccc(Cl)c2cc3ccccc3nc12 | 0.6 µM (active) | 1.67 µM (inactive) | 0.481 µM (active) | 1.83 µM (inactive) | 0.394 µM (active) | 0.807 µM (active) | 0.404 µM (active) | 1.7 µM (inactive) | 1.16 µM (inactive) | 0.918 µM (active) | 2.35 µM (inactive) | 1.07 µM (active) | 0.632 µM (active) | 1 µM (active) | 0.612 µM (active) | 1.05 µM (active) | 1.22 µM (inactive) | 0.652 µM (active) | 0.885 µM (active)
CCOC(=O)C(=O)CC(=O)C1=C(c2ccccc2OC)CC(c2cccs2)=CC1=O | 86.3 µM (inactive) | 0.418 µM (active) | > 100 µM (inactive) | > 100 µM (inactive) | 37.1 µM (inactive) | 34.3 µM (inactive) | > 100 µM (inactive) | > 100 µM (inactive) | 44.1 µM (inactive) | > 100 µM (inactive) | > 100 µM (inactive) | > 100 µM (inactive) | > 100 µM (inactive) | 45.4 µM (inactive) | 20.9 µM (inactive) | 93.3 µM (inactive) | 41.9 µM (inactive) | > 100 µM (inactive) | 18.7 µM (inactive)
CSc1nncc(-c2cc3c(c(SC)n2)CCC3)n1 | 25.9 µM (inactive) | 22.1 µM (inactive) | 24.4 µM (inactive) | > 100 µM (inactive) | > 100 µM (inactive) | > 100 µM (inactive) | > 100 µM (inactive) | > 100 µM (inactive) | > 100 µM (inactive) | > 100 µM (inactive) | > 100 µM (inactive) | > 100 µM (inactive) | > 100 µM (inactive) | > 100 µM (inactive) | 28.8 µM (inactive) | 18.9 µM (inactive) | > 100 µM (inactive) | > 100 µM (inactive) | > 100 µM (inactive)
COC(=O)[C@](C)(Cc1ccccc1)NC(=O)[C@@H](C)N1[C@@H](c2ccccc2)COC1(C)C | 57.7 µM (inactive) | 14.4 µM (inactive) | 78.5 µM (inactive) | > 100 µM (inactive) | 89.7 µM (inactive) | 22.2 µM (inactive) | 30.6 µM (inactive) | 57.9 µM (inactive) | 43.5 µM (inactive) | 56.2 µM (inactive) | 48.2 µM (inactive) | > 100 µM (inactive) | 51.9 µM (inactive) | > 100 µM (inactive) | 13.1 µM (inactive) | 47 µM (inactive) | 37.6 µM (inactive) | 63.5 µM (inactive) | 53 µM (inactive)
O=S(=O)(/N=C(\NO)Nc1ccc(Cl)cc1)c1cccc2nsnc12 | 31.6 µM (inactive) | 31.8 µM (inactive) | 34.3 µM (inactive) | 26.9 µM (inactive) | 26.1 µM (inactive) | 31 µM (inactive) | 65.2 µM (inactive) | 26.2 µM (inactive) | 14.8 µM (inactive) | 81.1 µM (inactive) | 28.6 µM (inactive) | 55.7 µM (inactive) | 45.2 µM (inactive) | > 100 µM (inactive) | 11 µM (inactive) | 77.1 µM (inactive) | 18.7 µM (inactive) | 21.6 µM (inactive) | 57.9 µM (inactive)
Cc1ccc(F)c2[nH]c(-c3ccccc3)cc(=O)c12 | 6.04 µM (inactive) | 6.18 µM (inactive) | 6.11 µM (inactive) | 9.1 µM (inactive) | 4.48 µM (inactive) | 3.03 µM (inactive) | 9.23 µM (inactive) | > 25.2 µM (inactive) | 2.75 µM (inactive) | 40.1 µM (inactive) | 7.06 µM (inactive) | 14.6 µM (inactive) | 9.46 µM (inactive) | 5.9 µM (inactive) | 5.69 µM (inactive) | 20.9 µM (inactive) | 6.28 µM (inactive) | 3.84 µM (inactive) | 6.47 µM (inactive)
c1ccc2[nH]c(C3CCCCO3)nc2c1 (stereo unspecified) | > 100 µM (inactive) | > 100 µM (inactive) | > 100 µM (inactive) | > 100 µM (inactive) | > 100 µM (inactive) | 50.4 µM (inactive) | > 100 µM (inactive) | > 100 µM (inactive) | > 100 µM (inactive) | 6.41 µM (inactive) | > 100 µM (inactive) | > 100 µM (inactive) | > 100 µM (inactive) | > 100 µM (inactive) | > 100 µM (inactive) | > 100 µM (inactive) | > 100 µM (inactive) | > 100 µM (inactive) | > 100 µM (inactive)
O=C1c2ccccc2-c2ccc(/N=[N+](/[O-])c3ccc4c(c3)C(=O)c3ccccc3-4)cc21 | > 100 µM (inactive) | > 100 µM (inactive) | > 100 µM (inactive) | > 100 µM (inactive) | > 100 µM (inactive) | > 100 µM (inactive) | > 100 µM (inactive) | > 100 µM (inactive) | > 100 µM (inactive) | > 100 µM (inactive) | > 100 µM (inactive) | > 100 µM (inactive) | > 100 µM (inactive) | 71.4 µM (inactive) | > 100 µM (inactive) | > 100 µM (inactive) | > 100 µM (inactive) | > 100 µM (inactive) | > 100 µM (inactive)
COc1cc2c(c(OC)c1OC)C(=O)[C@H](Br)[C@H]2NC(=O)NCCCl | 51.1 µM (inactive) | > 100 µM (inactive) | > 100 µM (inactive) | > 100 µM (inactive) | 23.6 µM (inactive) | 72.8 µM (inactive) | > 100 µM (inactive) | 50.1 µM (inactive) | 37.2 µM (inactive) | 88.5 µM (inactive) | 38.6 µM (inactive) | > 100 µM (inactive) | > 100 µM (inactive) | > 100 µM (inactive) | > 100 µM (inactive) | > 100 µM (inactive) | 68.2 µM (inactive) | 73.3 µM (inactive) | > 100 µM (inactive)
O=[N+]([O-])c1ccc(N2N=C(c3ccc4ccccc4c3O)CC2c2ccc(Cl)cc2Cl)c([N+](=O)[O-])c1 (stereo unspecified) | 28 µM (inactive) | 92.7 µM (inactive) | 33.3 µM (inactive) | 37.2 µM (inactive) | 12.9 µM (inactive) | 29 µM (inactive) | 18.7 µM (inactive) | 37.3 µM (inactive) | 29.1 µM (inactive) | 49.1 µM (inactive) | 49.1 µM (inactive) | 63 µM (inactive) | 24.7 µM (inactive) | 38.1 µM (inactive) | 28 µM (inactive) | 30.9 µM (inactive) | 33.7 µM (inactive) | 26.7 µM (inactive) | 24.3 µM (inactive)
CC1(C)CC2(C)ON=C(c3ccccc3)N2c2ccccc2N1 (stereo unspecified) | 19.8 µM (inactive) | 23.9 µM (inactive) | 27.7 µM (inactive) | 46.9 µM (inactive) | 32.7 µM (inactive) | 30.6 µM (inactive) | 18.2 µM (inactive) | 24 µM (inactive) | 16.7 µM (inactive) | 17.3 µM (inactive) | 17.8 µM (inactive) | 39.4 µM (inactive) | 25 µM (inactive) | 17.7 µM (inactive) | 21.4 µM (inactive) | 14.4 µM (inactive) | 16.5 µM (inactive) | 14.1 µM (inactive) | 28.7 µM (inactive)
O=N/N=c1\o[n-][n+](CCc2ccccc2)c1Cc1/c(=N/N=O)o[n-][n+]1CCc1ccccc1 | 22.1 µM (inactive) | 19 µM (inactive) | 21.7 µM (inactive) | > 100 µM (inactive) | > 100 µM (inactive) | 78.2 µM (inactive) | > 100 µM (inactive) | 50 µM (inactive) | 31.2 µM (inactive) | 29.9 µM (inactive) | 32.9 µM (inactive) | 25.2 µM (inactive) | 28.4 µM (inactive) | 23.2 µM (inactive) | 23.1 µM (inactive) | 33.9 µM (inactive) | 18.7 µM (inactive) | 51.2 µM (inactive) | 25.6 µM (inactive)
NC(Cc1ccc(S(=O)(=O)O)cc1)C(=O)NC(Cc1ccc(S(=O)(=O)O)cc1)C(=O)NC(Cc1ccc(S(=O)(=O)O)cc1)C(=O)NC(Cc1ccc(S(=O)(=O)O)cc1)C(=O)O (stereo unspecified) | > 100 µM (inactive) | > 100 µM (inactive) | > 100 µM (inactive) | > 100 µM (inactive) | > 100 µM (inactive) | 3.92 µM (inactive) | > 100 µM (inactive) | > 100 µM (inactive) | > 100 µM (inactive) | > 100 µM (inactive) | > 100 µM (inactive) | > 100 µM (inactive) | > 100 µM (inactive) | > 100 µM (inactive) | > 100 µM (inactive) | > 100 µM (inactive) | > 100 µM (inactive) | > 100 µM (inactive) | > 100 µM (inactive)
CCCC(=O)NC(Nc1ccc(S(=O)(=O)Nc2cc(C)on2)cc1)(C(=O)OCC)C(F)(F)F (stereo unspecified) | > 100 µM (inactive) | > 100 µM (inactive) | > 100 µM (inactive) | > 100 µM (inactive) | > 100 µM (inactive) | > 100 µM (inactive) | > 100 µM (inactive) | > 100 µM (inactive) | > 100 µM (inactive) | > 100 µM (inactive) | > 100 µM (inactive) | > 100 µM (inactive) | > 100 µM (inactive) | > 100 µM (inactive) | > 100 µM (inactive) | > 100 µM (inactive) | > 100 µM (inactive) | > 100 µM (inactive) | > 100 µM (inactive)
